Test results published in patent US4705753A, “Biologically active acrylonitrile-based copolymeric membrane” (priority 1984, dated 1987).

Molecular target: glucose isomerase (GI) from Streptomyces albus, purified, covalently immobilized on acrylonitrile copolymer membrane (Streptomyces albus G, UniProt P24299)
Settings: substrate glucose; membrane-bound GI; 70° C., pH 6.8 maleate buffer, 7 mM MgSO4, 3 mM CoSO4

Sequence of glucose isomerase (GI) from Streptomyces albus, purified, covalently immobilized on acrylonitrile copolymer membrane (P24299 whole entry): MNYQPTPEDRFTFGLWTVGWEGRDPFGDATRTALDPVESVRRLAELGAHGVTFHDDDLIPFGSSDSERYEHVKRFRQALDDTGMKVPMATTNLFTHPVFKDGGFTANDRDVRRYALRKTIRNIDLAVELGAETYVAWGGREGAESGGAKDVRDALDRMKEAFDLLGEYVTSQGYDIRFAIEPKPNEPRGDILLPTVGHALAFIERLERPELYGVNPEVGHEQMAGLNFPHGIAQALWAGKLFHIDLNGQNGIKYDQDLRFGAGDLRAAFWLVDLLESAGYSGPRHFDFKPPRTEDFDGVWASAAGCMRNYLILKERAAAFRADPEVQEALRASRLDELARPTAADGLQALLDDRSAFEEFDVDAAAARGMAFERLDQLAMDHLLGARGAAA

## OC[C@H]1OC(O)[C@H](O)[C@@H](O)[C@@H]1O (stereo partly shown) [glucose]
  Vmax for the immobilized GI: ~15 µmol/min/mg
